Results on eight compounds are retold here after publication PMC12216181 (Nature Communications, 2025).

Structures are written as SMILES.

Data set [1] has as its system EV-D68 US/MO/14-18947. Briefly: Plaque assay, EV-D68 US/MO/14-18947 in RD cells. It counts as cell-based. To be noted: Enterovirus D, EVD68, RD.
For data set [2], the system named is EV-D68 US/MO/14-18947. Briefly: Time-of-addition experiment, single cycle of EV-D68 replication in RD cells. The data set is classed as cell-based, Enterovirus D68. To be noted: 3 µM.
Data set [3] is described as follows: Drug concentration in the spinal cord by LC-MS/MS. It counts as in vivo, Swiss Webster mouse pups. The note with it: Swiss Webster, mouse, ip, 50 mg/kg, one hour after the intraperitoneal injection.
The next data set concerns EV-D68 US/IL/14-18952. Briefly: EV-D68 infection neonatal mouse model. To be noted: for Weight at DPI14: 50 mg/kg i.p. daily. The data set is classed as in vivo, Swiss Webster mice.
Data set [4] concerns EV-D68 US/MO/14-18947 passaged viruses. Briefly: Serial passage experiment 1: drug sensitivity of passaged viruses. The data set is classed as cell-based, Enterovirus D68. The note with it: Enterovirus D, CPE assay.
Another data set concerns EV-A71 Tainan/4643/1998. Briefly: Plaque assay, EV-A71 Tainan/4643/1998. It counts as cell-based. The note with it: Enterovirus A, EVA71, plaque assay.
The subject of data set [5] is EV-D68. Briefly: IHC staining of spinal cord sections of EV-D68-infected mice. It counts as in vivo, Swiss Webster pups. To be noted: 8 DPI, 24-h delayed treatment model.
Data set [6] in a line: Tolerability in uninfected Jun6504-treated mice. It counts as in vivo. The note with it: 50 mg/kg dose, uninfected treated animals.
In data set [7] the test system is EV-D68. To be noted: AG129 mice; cited from earlier work.
The subject of data set [8] is EV-D68. The note with it: EV-D68 infection neonatal mouse model; cited from earlier work.
The next data set relates to EV-D68-associated AFM. To be noted: patients with EV-D68-associated AFM; cited from earlier work.
The test system of data set [9] is EV-D68. The note with it: EV-D68 animal infection models; cited from earlier work.

One may read the EC50 as the concentration giving half of the maximal effect. Regarding `CC(C)n1ncc2c(C(=O)NCC3(C)CNC3)cc(C3CC3)nc21` [Jun6504], the EC50 was found to be 0.13 µM in the data set with EV-D68 US/MO/14-18947 [1]; 0.8 µM in [4] (EVD68, P3 virus, selection pressure 400 nM); 3.38 µM in data set [4] (EVD68, P6 virus, selection pressure 3.2 μM); 0.22 µM in the data set on EV-A71 Tainan/4643/1998. In addition, in the data set with EV-D68 US/MO/14-18947 [2] (added at 5 hpi), the “effect on antiviral potency” value is “significant reduction in the antiviral potency”. In addition, the effect on efficacy entry in the data set on EV-D68 US/MO/14-18947 [2] (added at 7 hpi) is “almost complete loss of efficacy”. In the data set on EV-D68 US/MO/14-18947 [2] (added before or at 3 h post-infection), the “effect on EV-D68 amplification” value is on record as “completely inhibited EV-D68 amplification”. This compound also displayed a concentration at 1 h in data set [3] of approximately 575 ng/g. Besides, the “Weight at DPI14” value is 9.59 ± 0.27 g in the data set on EV-D68 US/IL/14-18952 (24-h delayed treatment model, control 8.65 ± 0.23 g) and 9.29 ± 0.14 g with EV-D68 US/IL/14-18952 (immediate treatment model, control 7.92 ± 0.46 g). Moreover, the “Viral titer in spinal cord” value in the data set on EV-D68 US/IL/14-18952 (DPI5 after 4 daily doses, 24-h delayed model, control 19,834 ± 11,519) stood at 4520 ± 1796 TCID50. In addition, the “EV-D68-infected (NeuN+) neurons in the cervical enlargement” value in the data set with EV-D68 [5] is recorded as “no infected (NeuN+) neurons were observed”. Further, in the data set with EV-D68 [5] (treated animals with paralysis score 0), the “ChAT-positive motor neurons in lumbar spinal cord” value is given as “many ChAT-positive motor neurons present”. In addition, in data set [6], the tolerability result is “no signs of pain, weight loss, or death were observed”.

Take `CC(C)S(=O)(=O)n1c(N)nc2ccc(/C(=N/O)c3ccccc3)cc21` [enviroxime]: the therapeutic efficacy result with EV-D68 [7] is reported as “no therapeutic efficacy”.

As for `CNCCC(Oc1ccc(C(F)(F)F)cc1)c1ccccc1` (stereo not shown) [fluoxetine], the “effect on motor impairment and viral titers” value with EV-D68 [8] was “did not reduce motor impairment or viral titers in the muscle and spinal cord”. Besides, in the data set with EV-D68-associated AFM, the neurological outcomes is on record as “failed to improve neurological outcomes”.

In the case of `N=C(N)N` [guanidine], the “in vivo antiviral activity” value in the data set on EV-D68 [9] is listed as “have shown in vivo antiviral activity”.

For `CCOC(=O)c1ccc(OCCC2CCN(c3ccc(C)nn3)CC2)cc1` [pirodavir], the therapeutic efficacy entry with EV-D68 [7] is “no therapeutic efficacy”.

Consider `Cc1cc(CCCOc2c(C)cc(-c3noc(C(F)(F)F)n3)cc2C)on1` [pleconaril], for which the therapeutic efficacy entry in the data set with EV-D68 [7] is given as “no therapeutic efficacy”.

Regarding `NC(=O)c1ncn([C@@H]2O[C@H](CO)[C@@H](O)[C@H]2O)n1` [ribavirin], the therapeutic efficacy entry in the data set on EV-D68 [7] was “no therapeutic efficacy”.

`CCOC(=O)/C=C/[C@H](C[C@@H]1CCNC1=O)NC(=O)[C@@H](CC(=O)[C@@H](NC(=O)c1cc(C)on1)C(C)C)Cc1ccc(F)cc1` [rupintrivir]: the therapeutic efficacy entry in the data set with EV-D68 [7] is on record as “no therapeutic efficacy”.
